Experimental data: patent publication US8236143B2, “Controlling chemical reactions by spectral chemistry and spectral conditioning” (GR Intellectual Reserve, LLC, priority 2002, dated 2012)

Experiments:
[1] = Phenyl salicylate solubility in neon-lamp conditioned vs unconditioned acetone at room temperature; assay type: physicochemical; settings: about 20 hours equilibration
Protocol: Acetone (about 1 ml) was pipetted into small glass test tubes and stoppers placed in the tube. Tubes were placed under a neon lam; (about 8m/cm^2) in an otherwise dark room for about 1-5 hours at about 28° C. ambient temperature. Tubes were also placed simultaneously in an incubator at 28° C. for about 1.5 hours.
Phenyl solicylate (about 3.50 grams) was added to each tube leaving a layer undissolved on the bottom of each tube. The solutions were allowed to equilibrate (about 20 hours). Solution was filtered over the crystals and 0.500 ml pipetted into fresh tubes.
After the acetone evaporated, dry weights of phenyl solicylate per ml dissolved in conditioned and unconditioned acetone were determined.

[2] = Sucrose solubility in sodium-lamp conditioned vs control water at room temperature (22° C.); assay type: physicochemical
Protocol: Beaker “II” was placed under another sodium lamp 12 as like Beaker “KK”; and Beaker “JJ” was placed in the same incubator as Beaker “LL”. […] Specifically, Beaker “GG” was placed under another sodium lamp 12 as like Beaker “KK” and Beaker “II”; and Becker “HH” was placed into the same incubator as Beaker “LL” and “II”.

Average amount of phenyl salicylate dissolved ([1]; acetone conditioned under neon lamp)	Average amount of phenyl salicylate dissolved ([1]; unconditioned acetone (incubator 28° C.))	Weight (dry sucrose weight per 100 ml solution) ([2]; Beaker GG, water under sodium lamp one hour, solution at 23.5° C.)	Weight (dry sucrose weight per 100 ml solution) ([2]; Beaker HH, control water 1 hour in incubator, solution at 23° C.)	Weight (dry sucrose weight per 100 ml solution) ([2]; Beaker II, water under sodium lamp two hours, solution at 23.5° C.)	Weight (dry sucrose weight per 100 ml solution) ([2]; Beaker JJ, control water 2 hours in incubator, solution at 23.5° C.)	Weight (dry sucrose weight per 100 ml solution) ([2]; Beaker KK, water under Na lamp three hours, solution at 23.5° C.)	Weight (dry sucrose weight per 100 ml solution) ([2]; Beaker LL, control water 3 hours in incubator, solution at 23.5° C.)	more sucrose dissolved by conditioned water than by untreated control water ([2]; two hours exposure of water to the sodium lamp)	SMILES
0.78 g/mL	0.68 g/mL	–	–	–	–	–	–	–	O=C(Oc1ccccc1)c1ccccc1O [phenyl salicylate]
–	–	49 g/100 ml	49 g/100 ml	47 g/100 ml	44 g/100 ml	46 g/100 ml	49 g/100 ml	about 7%	OC[C@H]1O[C@@](CO)(O[C@H]2O[C@H](CO)[C@@H](O)[C@H](O)[C@H]2O)[C@@H](O)[C@@H]1O [Sucrose]
